Assay results published in PMC6052345, “Functional Analysis of the Chemosensory Protein MsepCSP8 From the Oriental Armyworm Mythimna separata” (Frontiers in Physiology, 2018).
Read-outs that look alike come from different tables or passages of the source.

Molecular target: MsepCSP8 (Mythimna separata, UniProt A0A1V1WC03)
Assay: Fluorescence competitive binding assay with 1-NPN as fluorescent probe
Conditions: for Ki: calculated from IC50; for IC50: displacement of 1-NPN; for binding affinity to MsepCSP8 in words: discussion of Table 1, pH not stated; for Kd: dissociation constant, saturation and Scatchard plot
Procedure: The expressed protein was obtained in soluble form in the supernatant, and purification was accomplished using a Ni affinity chromatography column (GE Healthcare, Uppsala, Sweden). Bound protein was eluted by digestion with recombinant bovine enterokinase at 26°C for 15 h to remove the His-tag. Expression and purification were verified by 15% sodium dodecyl sulfate-polyacrylamide gel electrophoresis (SDS-PAGE), and protein concentration was measured as described by [Cao et al. (2017)]. Dialysis of purified protein was carried out in 30 mM Tris-HCl buffer [Tris(hydroxymethyl)aminomethane] at pH 7.4 and pH 5.0 before fluorescence binding assays, and protein was stored at -80°C until use.
Fluorescence competitive binding assays were performed to determine the binding affinity of MsepCSP8 for 56 ligands using N-phenyl-1-naphthylamine (1-NPN) as a fluorescent probe. Stock solutions of ligands were prepared in spectrophotometric-grade methanol. […] Mixtures of 1-NPN and protein were excited at 337 nm wavelength, and emission spectra were recorded from 360 to 600 nm using a fluorescence spectrophotometer (RF-5301PC Shimadzu, Kyoto, Japan). Binding of selected ligands with MsepCSP8 (1:1 protein:ligand stoichiometry) was evaluated using 1-NPN as a fluorescent probe, with the final concentration of the product ranging from 0 to 20 μM. […] Three independent measurements were made for all experiments. The binding affinity (Ki) of MsepCSP8 for all tested ligands was calculated based on IC50 values as follows:
Ki=IC50/(1 + [1−NPN]/K1–NPN)
where [1-NPN] is the free concentration of 1-NPN, and K1-NPN is the dissociation constant of the complex of MsepCSP8 and 1-NPN.

MsepCSP8, sequence (A0A1V1WC03 entry or part of it): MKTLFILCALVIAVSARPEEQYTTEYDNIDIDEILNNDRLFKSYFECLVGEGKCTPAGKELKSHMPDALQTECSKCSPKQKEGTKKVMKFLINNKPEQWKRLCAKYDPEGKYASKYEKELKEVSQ

Molecule: C/C1=C\CC/C(C)=C/CC(C)(C)/C=C/C1 [α-Humulene]
- Ki (pH 5.0, read-out: Ki): 17.2 µM
- IC50 (pH 5.0, read-out: IC50): 23.1 µM
- Ki (pH 7.4, read-out: Ki): 13 µM
- IC50 (pH 7.4, read-out: IC50): 18.5 µM

Molecule: CC1=CC(=O)[C@H]2C[C@@H]1C2(C)C [(S)-(-)-verbenone]
- binding affinity to MsepCSP8 in words: high binding affinities
- Ki (pH 5.0, read-out: Ki): 16.1 µM
- IC50 (pH 5.0, read-out: IC50): 21.5 µM
- Ki (pH 7.4, read-out: Ki): 9.27 µM
- IC50 (pH 7.4, read-out: IC50): 13.2 µM

Molecule: CC1=CCC2C(C1)C2(C)C (single isomer, unassigned; (+)) [(+)-3-Carene]
- binding affinity to MsepCSP8 in words: high binding affinities
- Ki (pH 5.0, read-out: Ki): 13.2 µM
- IC50 (pH 5.0, read-out: IC50): 17.7 µM
- Ki (pH 7.4, read-out: Ki): 9.42 µM
- IC50 (pH 7.4, read-out: IC50): 13.4 µM

Molecule: c1ccc(Nc2cccc3ccccc23)cc1 [1-NPN, N-phenyl-1-naphthylamine, reference compound]
- Kd (pH 5.0): 2.93 µM
- Kd (pH 7.4): 2.41 µM

Molecule: Cc1ccc(C(C)C)cc1 [4-Isopropyltoluene]
- IC50 (IC50, pH 5.0): 7.72 µM
- IC50 (IC50, pH 7.4): 18 µM
- Ki (Ki, pH 5.0): 5.76 µM
- Ki (Ki, pH 7.4): 12.6 µM

Molecule: CCCCCCCCCCCCCCCCCCC [Nonadecane]
- IC50 (IC50, pH 5.0): 19.8 µM
- IC50 (IC50, pH 7.4): 25.1 µM
- Ki (Ki, pH 5.0): 14.8 µM
- Ki (Ki, pH 7.4): 17.6 µM

Molecule: CC(=O)/C=C/C1=C(C)CCCC1(C)C [β-Lonone]
- IC50 (IC50, pH 5.0): 22.8 µM
- IC50 (IC50, pH 7.4): 10.3 µM
- Ki (Ki, pH 5.0): 17 µM
- Ki (Ki, pH 7.4): 7.22 µM
- binding affinity to MsepCSP8 in words: high affinity

Molecule: (+)-Fenchone
- Ki (pH 5.0, read-out: Ki): 14.9 µM
- IC50 (pH 5.0, read-out: IC50): 20 µM
- Ki (pH 7.4, read-out: Ki): 20.8 µM
- IC50 (pH 7.4, read-out: IC50): 29.7 µM

Molecule: CCCCCCCCC=O [Nonanal]
- IC50 (IC50, pH 5.0): 14.9 µM
- IC50 (IC50, pH 7.4): 12.7 µM
- Ki (Ki, pH 5.0): 11.1 µM
- Ki (Ki, pH 7.4): 8.92 µM
- binding affinity to MsepCSP8 in words: high affinities

Molecule: C=C(C)[C@H]1CC=C(C)CC1 [R-(+)-Limonene]
- Ki (pH 5.0, read-out: Ki): 14.1 µM
- IC50 (pH 5.0, read-out: IC50): 18.9 µM
- Ki (pH 7.4, read-out: Ki): 16.5 µM
- IC50 (pH 7.4, read-out: IC50): 23.5 µM

Molecule: CCCCCCCCCCCCCCCCCCCCC [n-Heneicosane]
- IC50 (IC50, pH 5.0): 36.5 µM
- IC50 (IC50, pH 7.4): 9.59 µM
- Ki (Ki, pH 5.0): 27.2 µM
- Ki (Ki, pH 7.4): 6.73 µM
- binding affinity to MsepCSP8 in words: bound highly

Molecule: COC(=O)c1ccccc1 [Methyl benzoate]
- IC50 (IC50, pH 5.0): 21.2 µM
- IC50 (IC50, pH 7.4): 12.5 µM
- Ki (Ki, pH 5.0): 15.8 µM
- Ki (Ki, pH 7.4): 8.8 µM
- binding affinity to MsepCSP8 in words: bound highly

Molecule: CCC(C)C=O (centres unmarked) [2-Methylbutyraldehyde]
- IC50 (IC50, pH 5.0): 21.4 µM
- IC50 (IC50, pH 7.4): 13.8 µM
- Ki (Ki, pH 5.0): 16 µM
- Ki (Ki, pH 7.4): 9.66 µM
- binding affinity to MsepCSP8 in words: high affinities

Molecule: C=CC(C)=CCC=C(C)C [Ocimene]
- Ki (pH 5.0, read-out: Ki): 11.6 µM
- IC50 (pH 5.0, read-out: IC50): 15.6 µM
- Ki (pH 7.4, read-out: Ki): 11.7 µM
- IC50 (pH 7.4, read-out: IC50): 16.7 µM

Molecule: CC12CCC(CC1)C(C)(C)O2 [Eucalyptol]
- IC50 (IC50, pH 5.0): 88.1 µM
- IC50 (IC50, pH 7.4): 25.2 µM
- Ki (Ki, pH 5.0): 65.7 µM
- Ki (Ki, pH 7.4): 17.7 µM

Molecule: C=CC(O)CCCCC (centres unmarked) [1-Octen-3-ol]
- IC50 (IC50, pH 5.0): 13.2 µM
- IC50 (IC50, pH 7.4): 8.25 µM
- Ki (Ki, pH 5.0): 9.88 µM
- Ki (Ki, pH 7.4): 5.79 µM
- binding affinity to MsepCSP8 in words: bound strongly

Molecule: CCC/C=C/COC(C)=O [E-2-Hexen-1-ol acetate]
- IC50 (IC50, pH 5.0): 62.8 µM
- IC50 (IC50, pH 7.4): 14.6 µM
- Ki (Ki, pH 5.0): 46.9 µM
- Ki (Ki, pH 7.4): 10.2 µM

Molecule: CC1=CC[C@@H]2[C@@H]3[C@H]1[C@@]2(C)CCCC3(C)C [(+)-α-longipinene]
- binding affinity to MsepCSP8 in words: high binding affinities
- Ki (pH 5.0, read-out: Ki): 10.8 µM
- IC50 (pH 5.0, read-out: IC50): 14.4 µM
- Ki (pH 7.4, read-out: Ki): 9.86 µM
- IC50 (pH 7.4, read-out: IC50): 14.1 µM

Molecule: C=CC(C)(O)CCC=C(C)C (centres unmarked) [Linalool]
- IC50 (IC50, pH 5.0): 25 µM
- IC50 (IC50, pH 7.4): 14.5 µM
- Ki (Ki, pH 5.0): 18.7 µM
- Ki (Ki, pH 7.4): 10.1 µM

Molecule: Farnesene
- IC50 (pH 5.0, read-out: IC50): 20.2 µM
- Ki (pH 7.4, read-out: Ki): 13.1 µM
- IC50 (pH 7.4, read-out: IC50): 18.6 µM

Molecule: CCCCCCCC [Octane]
- IC50 (IC50, pH 5.0): 15.9 µM
- IC50 (IC50, pH 7.4): 37 µM
- Ki (Ki, pH 5.0): 11.8 µM
- Ki (Ki, pH 7.4): 26 µM

Molecule: (–)-Isolongifolene
- Ki (pH 5.0, read-out: Ki): 46 µM
- IC50 (pH 5.0, read-out: IC50): 61.6 µM
- Ki (pH 7.4, read-out: Ki): 17.3 µM
- IC50 (pH 7.4, read-out: IC50): 24.6 µM
